Test results from patent US8183383B2, “Protein tyrosine phosphatase 1B inhibitor, preparation methods and uses thereof” (Shanghai Institute of Materia Medica, Chinese Academy of …, priority 2007, dated 2012).

Biological target: T1, hPTP1B (Homo sapiens, UniProt P18031)
T1 construct: The catalytic structural domain of hPTP1B was expressed in E-coli system by a molecular biology protocol; made in house; host or cells: E. coli
T1 sequence (P18031 3-277 limits assumed): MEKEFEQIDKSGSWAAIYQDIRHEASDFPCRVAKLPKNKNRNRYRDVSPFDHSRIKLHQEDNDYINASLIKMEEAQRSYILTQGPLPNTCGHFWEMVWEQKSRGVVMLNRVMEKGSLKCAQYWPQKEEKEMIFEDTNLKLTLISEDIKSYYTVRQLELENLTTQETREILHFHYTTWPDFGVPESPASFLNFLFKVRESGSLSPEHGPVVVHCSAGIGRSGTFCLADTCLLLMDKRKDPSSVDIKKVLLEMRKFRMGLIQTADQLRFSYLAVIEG
Assay: PTP1B inhibition test (pNPP hydrolysis, absorption at 410 nm)
Assay type: biochemical
Conditions: recombinant hPTP1B catalytic domain 40 nM, 2 mM pNPP, pH 7.0, 2% DMSO; read-out: IC50(μM), inhibitory activity of the test compounds against PTP1B
From the text: 1) Test principle: The catalytic structural domain of hPTP1B was expressed in E-coli system by a molecular biology protocol. The purified hPTP1B recombinant protein can hydrolyze the phosphoester linkage of the pNPP substrate to obtain a product which has a strong light absorption at 410 nm. Therefore, the variation of the enzyme activity and the inhibitory activity of a compound against the enzyme can be observed by directly monitoring the changes in the light absorption at 410 nm. A typical activity assay system is as follows: 50 mM Mops, PH 7.0, 1 mM EDTA, 2 mM DTT, 2 mM PNPP, 2% DMSO, 40 nM hPTP1B.
2) Measuring Index: The light absorption was dynamically measured at 410 nm for 3 min. The slope of the first-order reaction of the dynamic curve thereof was considered as the activity index of the enzymes.
3) Measurement: • 1. 1 mg sample was dissolved in 200 μL DMSO. To each wall of the A2-H11 of a 96-wells polypropylene plate, 20 μL of the solution was added, followed by addition of 80 μL DMSO. The plate was used as mother plate. • 2. To each corresponding wall of a 96-wells polypropylene plate, 2 μL of sample was added with a Biomek 2000 automation workstation. The plate was used as daughter plate for screening. • 3. To each wall of A1-D1 and E12-H12, 2 μL, DMSO was added. These walls were regarded as 100% of enzyme activity for control. • 4. To each wall of A12-D12 and E1-H1, 2 μL positive control with different concentrations (four concentrations prepared by double-fold dilution from […]) was added respectively. • 5. To each wall of A1-H12, 88 μL Assay mix was added respectively. • 6. To each wall of A1-H12, 10 μL hPTP1B was added respectively. • 7. The light absorption was measured at 410 nm for 3 min on a SpectraMAX 340 spectrometer. • 8. Exporting the output into a TXT file, and opening the file with Excel. The average of the Vmax values of A1-D1 and E12-H12 was considered as 100% of enzyme activity.
4) Results: The screening results were the % inhibitory rate against the enzyme when the compound concentration was 20 μg/mL. 1050 value was calculated according to a conventional screening when the inhibitory rate exceeded 50%. The […] value of the positive control, 4-[4-(4-oxalyl-phenoxymethyl)-benzyloxy]-phenyl-oxo-acetic acid, is 5.4 μM [Christopher T. Seto, et al. J. Med. Chem., 2002, 45, 3946-3952].

Structure (SMILES)	IC50 [µM]
CCOC(=O)/C(C)=C\C(C)=C\c1csc([C@H](Cc2ccccc2)NC(=O)C2CCCCC2)n1 [WY466h]	34.2
CCOC(=O)/C(C)=C\C(C)=C\c1csc([C@H](Cc2ccc(O)cc2)NC(=O)C2CCCCC2)n1 [WY482h]	27.8
CCOC(=O)/C(C)=C\C(C)=C\c1csc([C@H](Cc2ccc(OC)cc2)NC(=O)C2CCCCC2)n1 [WY496h]	30.1
C=CCc1cc(C[C@H](NC(=O)C2CCCCC2)c2nc(/C=C(C)/C=C(/C)C(=O)OCC)cs2)ccc1O [WY522b]	> 40
C=CCOc1ccc(C[C@H](NC(=O)C2CCCCC2)c2nc(/C=C(C)/C=C(/C)C(=O)OCC)cs2)cc1 [WY522h]	34.4
CCOC(=O)/C(C)=C\C(C)=C\c1csc([C@H](Cc2ccc(OCCO)cc2)NC(=O)C2CCCCC2)n1 [WY526h]	> 40
CCOC(=O)/C(C)=C\C(C)=C\c1csc([C@H](Cc2ccc(OCc3ccccc3)cc2)NC(=O)C2CC2)n1 [WY530s]	> 35
CCCCOc1ccc(C[C@H](NC(=O)C2CCCCC2)c2nc(/C=C(C)/C=C(/C)C(=O)OCC)cs2)cc1 [WY538h]	22.1
CCOC(=O)/C(C)=C\C(C)=C\c1csc([C@H](Cc2ccc(OCC(=O)O)cc2)NC(=O)C2CCCCC2)n1 [WY540a]	> 40
CCOC(=O)/C(C)=C\C(C)=C\c1csc([C@H](Cc2ccc(-c3ccccc3)cc2)NC(=O)C2CCCCC2)n1 [WY542h]	> 40
CC(=C\c1csc([C@H](Cc2ccc(OCc3ccccc3)cc2)NC(=O)C2CCCCC2)n1)/C=C(\C)C(=O)O [WY544-2]	11.3
C/C(=C/C(C)=C/c1csc([C@H](Cc2ccc(OCc3ccccc3)cc2)NC(=O)C2CCCCC2)n1)C(=O)O [WY544a]	4.4
CCOC(=O)/C(C)=C\C(C)=C\c1csc([C@H](Cc2ccc(OCc3ccccc3)cc2)NC(=O)C2CCC2)n1 [WY544s]	> 40
CCOC(=O)/C(C)=C\C(C)=C\c1csc([C@H](Cc2ccc(OCc3ccccc3)cc2)NC(=O)C(=O)CO)n1 [WY548]	> 35
CCOC(=O)/C(C)=C\C(C)=C\c1csc([C@H](Cc2ccc(OCc3ccccc3)cc2)NC(=O)c2ccco2)n1 [WY556s]	> 40
CCOC(=O)/C(C)=C\C(C)=C\c1csc([C@H](Cc2ccc(OCc3ccccc3)cc2)NC(=O)C(=O)C2CC2)n1 [WY558]	8.14

Structure (SMILES)	IC50 [µM]
C/C(=C/C(C)=C/c1csc([C@H](Cc2ccc(OCc3ccccc3)cc2)NC(=O)CC2CCCCC2)n1)C(=O)O [WY558a]	9.32
CCOC(=O)/C(C)=C\C(C)=C\c1csc([C@H](Cc2ccc(OCc3ccccc3)cc2)NC(=O)C(F)(F)F)n1 [WY558f]	> 35
CCOC(=O)/C(C)=C\C(C)=C\c1csc([C@H](Cc2ccc(OCc3ccccc3)cc2)NC(=O)C2CCCC2)n1 [WY558s]	12.7
CCOC(=O)/C(C)=C\C(C)=C\c1csc([C@H](Cc2ccc(OCc3ccccc3)cc2)NC(=O)C2CCCO2)n1 (some centres unmarked) [WY560s]	> 40
CCOC(=O)/C(C)=C\C(C)=C\c1csc([C@H](Cc2ccc(OCc3ccccc3)cc2)NC(=O)CC(C)(C)C)n1 [WY560t]	20.2
CCOC(=O)/C(C)=C\C(C)=C\c1csc([C@H](Cc2ccc(OCc3ccccc3)cc2)NC(=O)C(=O)COC)n1 [WY562]	10.2
CCOC(=O)/C(C)=C\C(C)=C\c1csc([C@H](Cc2ccc(OCc3ccccc3)cc2)NC(=O)COC(C)=O)n1 [WY562s]	> 40
CCOC(=O)/C(C)=C\C(C)=C\c1csc([C@H](Cc2ccc(OCc3ccccc3)cc2)NC(=O)c2ccccc2)n1 [WY566s]	15.2
CCOC(=O)COc1ccc(C[C@H](NC(=O)C2CCCCC2)c2nc(/C=C(C)/C=C(/C)C(=O)OCC)cs2)cc1 [WY568h]	> 40
CCOC(=O)/C(C)=C/C(C)=C/c1csc([C@H](Cc2ccc(OCc3ccccc3)cc2)NC(=O)C2CCCCC2)n1 [WY572-2]	6.38
CCOC(=O)/C(C)=C/C(C)=C\c1csc([C@H](Cc2ccc(OCc3ccccc3)cc2)NC(=O)C2CCCCC2)n1 [WY572-3]	8.69
CCOC(=O)/C(C)=C\C(C)=C/c1csc([C@H](Cc2ccc(OCc3ccccc3)cc2)NC(=O)C2CCCCC2)n1 [WY572-4]	7.9
CCOC(=O)/C(C)=C\C(C)=C\c1csc([C@H](Cc2ccc(OCc3ccccc3)cc2)NC(=O)C(=O)C2CCC2)n1 [WY572]	8.52
CCOC(=O)/C(C)=C\C(C)=C\c1csc([C@H](Cc2ccc(OCc3ccccc3)cc2)NC(=O)C2CCCCC2)n1 [WY572s]	6.29
CCOC(=O)/C(C)=C\C(C)=C\c1csc([C@H](Cc2ccc(O)c(Cc3ccccc3)c2)NC(=O)C2CCCCC2)n1 [WY572t]	4.47

Continued, values first:

IC50 [µM]	Structure (SMILES)
> 40	CCOC(=O)/C(C)=C\C(C)=C\c1csc([C@H](Cc2ccc(OCc3ccncc3)cc2)NC(=O)C2CCCCC2)n1 [WY573h4]
> 35	CCOC(=O)/C(C)=C\C(C)=C\c1csc([C@H](Cc2ccc(OCc3ccccn3)cc2)NC(=O)C2CCCCC2)n1 [WY573h]
8.58	CCCCC(=O)C(=O)N[C@@H](Cc1ccc(OCc2ccccc2)cc1)c1nc(/C=C(C)/C=C(/C)C(=O)OCC)cs1 [WY574]
12	CCOC(=O)/C(C)=C\C(C)=C\c1csc([C@H](Cc2ccc(OCc3ccsc3)cc2)NC(=O)C2CCCCC2)n1 [WY578h]
23.1	CCOC(=O)/C(C)=C\C(C)=C\c1csc([C@H](Cc2ccc(OCc3ccccc3)cc2)NC(=O)Cc2ccccc2)n1 [WY580s]
> 35	CCOC(=O)/C(C)=C\C(C)=C\c1csc([C@H](Cc2ccc(OC(C)C(=O)OCC)cc2)NC(=O)C2CCCCC2)n1 (some centres unmarked) [WY582h]
> 35	CCOC(=O)/C(C)=C\C(C)=C\c1csc([C@H](Cc2ccc(OCc3ccccc3)cc2)NC(=O)C(=O)c2ccc[nH]2)n1 [WY583]
> 35	COC(=O)/C(C)=C\C(C)=C\c1csc([C@H](Cc2ccc(OCc3ccccc3)cc2)NC(=O)C(O)c2ccccc2)n1 (some centres unmarked) [WY584]
> 35	CCOC(=O)/C(C)=C\C(C)=C\c1csc([C@H](Cc2ccc(OCc3ccccc3)cc2)NC(=O)c2ccc(F)cc2)n1 [WY584s]
11	CCOC(=O)/C(C)=C\C(C)=C\c1csc([C@H](Cc2ccc(OCc3ccccc3)cc2)NC(=O)C(=O)C2CCCC2)n1 [WY586]
8.44	CCOC(=O)/C(C)=C\C(C)=C\c1csc([C@H](Cc2ccc(OCc3ccccc3)cc2)NC(=O)C2CCCCC2=O)n1 (some centres unmarked) [WY586d]
> 35	CCOC(=O)/C(C)=C\C(C)=C\c1csc([C@H](Cc2ccc(OCCc3ccccc3)cc2)NC(=O)C2CCCCC2)n1 [WY586h]
4.86	CCOC(=O)/C(C)=C\C(C)=C\c1nc([C@H](Cc2ccc(OCc3ccccc3)cc2)NC(=O)C2CCCCC2)sc1C [WY586z]
> 35	CCOC(=O)/C(C)=C\C(C)=C\c1csc([C@H](Cc2ccc(OCc3ccccc3)cc2)NC(=O)C2CCN(C)CC2)n1 [WY587s]
10.4	CCOC(=O)/C(C)=C\C(C)=C\c1csc([C@H](Cc2ccc(OCc3ccccc3)cc2)NC(=O)C(=O)C2CCCO2)n1 (some centres unmarked) [WY588]
24.1	CCOC(=O)/C(C)=C\C(C)=C\c1csc([C@H](Cc2ccc(OCc3cccc(F)c3)cc2)NC(=O)C2CCCCC2)n1 [WY590h3]
25.6	CCOC(=O)/C(C)=C\C(C)=C\c1csc([C@H](Cc2ccc(OCc3ccc(F)cc3)cc2)NC(=O)C2CCCCC2)n1 [WY590h]
31.8	CCOC(=O)/C(C)=C\C(C)=C\c1csc([C@H](Cc2ccc(OCc3ccccc3F)cc2)NC(=O)C2CCCCC2)n1 [WY592h2]
6.92	CCOC(=O)/C(C)=C\C(C)=C\c1csc([C@H](Cc2ccc(OCc3ccccc3)cc2)NC(=O)C(=O)c2ccccc2)n1 [WY594]
44.8	CCOC(=O)/C(C)=C\C(C)=C\c1csc([C@H](Cc2ccc(OCc3ccccc3)cc2)NC(=O)c2ccc(OC)cc2)n1 [WY596s]
> 35	CCOC(=O)/C(C)=C\C(C)=C\c1csc([C@H](Cc2ccc(OCc3ccc(C#N)cc3)cc2)NC(=O)C2CCCCC2)n1 [WY597h]
3.44	CCOC(=O)/C(C)=C\C(C)=C\c1csc([C@H](Cc2ccc(OCc3ccccc3)cc2)NC(=O)C(=O)C2CCCCC2)n1 [WY600]
